Experiment [1] has as its target T1, BTK enzyme (recombinant full-length BTK, hBTK) (Homo sapiens, UniProt Q06187).
T1 construct: recombinant protein from baculovirus-transfected S 19 cells: full-length BTK, 6 HIS-tag cleaved; 6 HIS-tag (cleaved yes); made in house
Kind of experiment: Btk enzyme activity assay (LANCE TR-FRET). To be noted: 50 pM hBTK, 25 μM ATP, 60 minute compound and enzyme incubation, concentration range 1 μM to 0.017 nM, read-out: BTK binding IC50. The class given is biochemical.

In experiment [2] the test system is adenosine uptake into HeLa cells. Kind of experiment: [3H]Adenosine uptake assay. The note with it: Homo sapiens; accumulation of [3H]adenosine into HeLa cells; concentration range 10 μM to 0.032 nM; read-out: ADU inhibition IC50. The class given is cell-based. As to the method:
Compounds are also screened in an adenosine uptake functional cellular assay using the protocol described below:
Adenosine uptake activity was determined by monitoring the accumulation of tritiated adenosine into HeLa cells (ATCC catalog #CCL-2) using a PMT-based radiometric detection instrument. In this assay, the potency (IC50) of each compound was determined from a ten point (1:3 serial dilution; final compound concentration range in assay from 10 μM to 0.032 nM) titration curve using the following outlined procedure. To each well of a 96-well CytoStar-T scintillating microplate (Perkin Elmer Catalog #RPNQ0163), 25 000 HeLa cells in 100 μL of growth medium comprising: Minimum Essential Media (Life Technologies Catalog #11095-080)+10% (v/v) foetal bovine serum (FBS; Sigma Aldrich Catalog #F2442) was added. These cells were incubated overnight at 37° C. in a humidified atmosphere with 5% (v/v) CO2. After this time the growth medium was removed and replaced with 40 μL assay medium comprising: Hanks balanced salts solution (HBSS; Thermo Fisher Catalog # SH30268.01)+5% (v/v) FBS. Compound stock solutions in DMSO were diluted in assay medium to 2.5× final compound concentration maintaining a constant DMSO concentration of 0.25% (v/v). 40 μL of compound in assay medium was dispensed into individual wells of the Cytostar-T plates and the plates were incubated for 30 minutes under ambient laboratory conditions. Following this incubation, 20 μL of 500 nM [^3H] adenosine (American Radiolabeled Chemicals Inc. Catalog #ART0287) in assay medium was added and incubated for a further 60 minutes under ambient laboratory conditions. The amount of radiolabel accumulation was then determined using a Perkin Elmer Topcount NXT microplate reader. In brief, HeLa cells adhere to the bottom of the Cytostar-T plate, uptake of [^3H]adenosine into these cells brings the radiolabel into sufficient proximity to excite the scintillant in the base of the plates. These events are captured by single PMT, time-resolved coincidence counting. IC50 values were determined by 4 parameter robust fit of counts per second values vs. (Log10)) compound concentrations.

The structures appear in SMILES notation.

T1 sequence (Q06187 whole entry): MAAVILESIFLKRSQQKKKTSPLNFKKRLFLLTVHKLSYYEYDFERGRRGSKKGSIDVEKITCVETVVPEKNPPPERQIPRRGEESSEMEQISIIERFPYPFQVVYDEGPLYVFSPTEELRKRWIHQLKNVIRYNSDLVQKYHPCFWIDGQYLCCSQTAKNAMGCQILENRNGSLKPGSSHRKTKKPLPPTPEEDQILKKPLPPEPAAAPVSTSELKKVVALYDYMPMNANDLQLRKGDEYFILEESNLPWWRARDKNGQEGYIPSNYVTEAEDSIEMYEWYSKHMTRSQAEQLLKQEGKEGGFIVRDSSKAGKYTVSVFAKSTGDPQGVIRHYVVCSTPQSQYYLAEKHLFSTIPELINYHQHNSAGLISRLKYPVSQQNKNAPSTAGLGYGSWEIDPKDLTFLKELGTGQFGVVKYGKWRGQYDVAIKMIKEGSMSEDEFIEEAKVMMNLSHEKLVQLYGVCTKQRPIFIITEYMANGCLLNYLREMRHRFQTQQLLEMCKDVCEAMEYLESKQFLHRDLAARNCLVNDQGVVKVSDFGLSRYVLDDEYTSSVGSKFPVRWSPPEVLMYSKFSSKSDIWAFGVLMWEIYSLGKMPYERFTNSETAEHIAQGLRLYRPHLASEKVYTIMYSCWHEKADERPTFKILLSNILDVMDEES

Turning to `COc1cc(C(=O)Nc2cc(C(F)(F)F)ccn2)ccc1-c1nc([C@H]2CN(C(=O)[C@@H](C)O)[C@@H](C)CO2)n2c(Cl)cnc(N)c12` [Example 14, 4-(8-amino-5-chloro-3-{(2R,5S)-4-[(2R)-2-hydroxypropanoyl]-5-methylmorpholin-2-yl}imidazo[1,5-a]pyrazin-1-yl)-3-methoxy-N-[4-(trifluoromethyl)pyridin-2-yl]benzamide], the IC50 in experiment [1] worked out at 2.04 nM; in experiment [2], 1690 nM.
The like results for `COc1cc(C(=O)Nc2cc(C(F)(F)F)ccn2)ccc1-c1nc([C@H]2CN(C(=O)C(C)C)[C@@H](C)CO2)n2c(Cl)cnc(N)c12` [Example 15, 4-{8-amino-5-chloro-3-[(2R,5S)-5-methyl-4-(2-methylpropanoyl)morpholin-2-yl]imidazo[1,5-a]pyrazin-1-yl}-3-methoxy-N-[4-(trifluoromethyl)pyridin-2-yl]benzamide] were, in that order, 4.14 nM and 3260 nM.
For `CCC(=O)N1C[C@H](c2nc(-c3ccc(C(=O)Nc4cc(C(F)(F)F)ccn4)cc3OC)c3c(N)ncc(Cl)n23)OC[C@@H]1C` [Example 16, 4-{8-amino-5-chloro-3-[(2R,5S)-5-methyl-4-propanoylmorpholin-2-yl]imidazo[1,5-a]pyrazin-1-yl}-3-methoxy-N-[4-(trifluoromethyl)pyridin-2-yl]benzamide], the IC50 in experiment [1] amounted to 1.25 nM; in experiment [2] it was 2790 nM.
Consider `COc1cc(C(=O)Nc2cc(C(F)(F)F)ccn2)ccc1-c1nc([C@H]2CN(C(C)=O)[C@@H](C)CO2)n2c(Cl)cnc(N)c12` [Example 17, 4-{3-[(2R,5S)-4-acetyl-5-methylmorpholin-2-yl]-8-amino-5-chloroimidazo[1,5-a]pyrazin-1-yl}-3-methoxy-N-[4-(trifluoromethyl)pyridin-2-yl]benzamide], for which the IC50 in experiment [1] turned out to be 2.27 nM; in experiment [2], 1620 nM.
As to `COc1cc(C(=O)Nc2cc(C(F)(F)F)ccn2)ccc1-c1nc([C@H]2CN(C(=O)C3(C)CC3)[C@@H](C)CO2)n2c(Cl)cnc(N)c12` [Example 18, 4-(8-amino-5-chloro-3-{(2R,5S)-5-methyl-4-[(1-methylcyclopropyl)carbonyl]morpholin-2-yl}imidazo[1,5-a]pyrazin-1-yl)-3-methoxy-N-[4-(trifluoromethyl)pyridin-2-yl]benzamide], the IC50 in experiment [1] turned out to be 2.8 nM; in experiment [2], 3230 nM.
The like results for `CCOc1cc(C(=O)Nc2cc(C(F)(F)F)ccn2)ccc1-c1nc([C@H]2CN(C(=O)CC)[C@@H](C)CO2)n2c(Cl)cnc(N)c12` [Example 19, 4-{8-amino-5-chloro-3-[(2R,5S)-5-methyl-4-propanoylmorpholin-2-yl]imidazo[1,5-a]pyrazin-1-yl}-3-ethoxy-N-[4-(trifluoromethyl)pyridin-2-yl]benzamide] were, in that order, 1.23 nM and no less than 10000 nM.
On the same counts, the results for `CCOc1cc(C(=O)Nc2cc(C(F)(F)F)ccn2)ccc1-c1nc([C@H]2CN(C(C)=O)[C@@H](C)CO2)n2c(Cl)cnc(N)c12` [Example 20, 4-{3-[(2R,5S)-4-acetyl-5-methylmorpholin-2-yl]-8-amino-5-chloroimidazo[1,5-a]pyrazin-1-yl}-3-ethoxy-N-[4-(trifluoromethyl)pyridin-2-yl]benzamide] are 1.36 nM and 3910 nM.
The like results for `CCOc1cc(C(=O)Nc2cc(C(F)(F)F)ccn2)ccc1-c1nc([C@H]2CN(C(=O)[C@H](C)OC)[C@@H](C)CO2)n2c(Cl)cnc(N)c12` [Example 21, 4-(8-amino-5-chloro-3-{(2R,5S)-4-[(2S)-2-methoxypropanoyl]-5-methylmorpholin-2-yl}imidazo[1,5-a]pyrazin-1-yl)-3-ethoxy-N-[4-(trifluoromethyl)pyridin-2-yl]benzamide] were, in that order, 1.43 nM and 7270 nM.
As for `CCOc1cc(C(=O)Nc2cc(C(F)(F)F)ccn2)ccc1-c1nc([C@H]2CN(C(=O)[C@H](C)O)[C@@H](C)CO2)n2c(Cl)cnc(N)c12` [Example 22, 4-(8-amino-5-chloro-3-{(2R,5S)-4-[(2S)-2-hydroxypropanoyl]-5-methylmorpholin-2-yl}imidazo[1,5-a]pyrazin-1-yl)-3-ethoxy-N-[4-(trifluoromethyl)pyridin-2-yl]benzamide], the values for the IC50 in experiment [1] and in experiment [2] were 1.21 nM and 4530 nM, respectively.
For `CCOc1cc(C(=O)Nc2cc(C(F)(F)F)ccn2)ccc1-c1nc([C@H]2CN(Cc3cnn(C)c3)[C@@H](C)CO2)n2c(Cl)cnc(N)c12` [Example 23, 4-(8-amino-5-chloro-3-{(2R,5S)-5-methyl-4-[(1-methyl-1H-pyrazol-4-yl)methyl]morpholin-2-yl}imidazo[1,5-a]pyrazin-1-yl)-3-ethoxy-N-[4-(trifluoromethyl)pyridin-2-yl]benzamide], the IC50 was 3.02 nM in experiment [1] and 1200 nM in experiment [2].
On to `CCOc1cc(C(=O)Nc2cc(C(F)(F)F)ccn2)ccc1-c1nc([C@H]2CN(CC)[C@@H](C)CO2)n2c(Cl)cnc(N)c12` [Example 24, 4-{8-amino-5-chloro-3-[(2R,5S)-4-ethyl-5-methylmorpholin-2-yl]imidazo[1,5-a]pyrazin-1-yl}-3-ethoxy-N-[4-(trifluoromethyl)pyridin-2-yl]benzamide], for which the IC50 is 1.54 nM in experiment [1] and 2350 nM in experiment [2].
On to `COc1cc(C(=O)Nc2cc(C(F)(F)F)ccn2)ccc1-c1nc([C@H]2CN(Cc3cnn(C)c3)[C@@H](C)CO2)n2c(Cl)cnc(N)c12` [Example 25, 4-(8-amino-5-chloro-3-{(2R,5S)-5-methyl-4-[(1-methyl-1H-pyrazol-4-yl)methyl]morpholin-2-yl}imidazo[1,5-a]pyrazin-1-yl)-3-methoxy-N-[4-(trifluoromethyl)pyridin-2-yl]benzamide], for which the IC50 in experiment [1] was found to be 1.94 nM; in experiment [2] it was 930 nM.
The like results for `CCN1C[C@H](c2nc(-c3ccc(C(=O)Nc4cc(C(F)(F)F)ccn4)cc3OC)c3c(N)ncc(Cl)n23)OC[C@@H]1C` [Example 26, 4-{8-amino-5-chloro-3-[(2R,5S)-4-ethyl-5-methylmorpholin-2-yl]imidazo[1,5-a]pyrazin-1-yl}-3-methoxy-N-[4-(trifluoromethyl)pyridin-2-yl]benzamide] were, in that order, 3.62 nM and 1020 nM.
On the same counts, the results for `CCOc1cc(C(=O)Nc2cc(C(F)(F)F)ccn2)ccc1-c1nc([C@H]2CN(C3CCOCC3)[C@@H](C)CO2)n2c(Cl)cnc(N)c12` [Example 27, 4-{8-amino-5-chloro-3-[(2R,5S)-5-methyl-4-(tetrahydro-2H-pyran-4-yl)morpholin-2-yl]imidazo[1,5-a]pyrazin-1-yl}-3-ethoxy-N-[4-(trifluoromethyl)pyridin-2-yl]benzamide] are 2.22 nM and 1880 nM.
On the same counts, the results for `COCCC(=O)N1CC(N2C[C@H](c3nc(-c4ccc(C(=O)Nc5cc(C(F)(F)F)ccn5)cc4OC)c4c(N)nccn34)OC[C@@H]2C)C1` [Example 28, 4-(8-amino-3-{(2R,5S)-4-[1-(3-methoxypropanoyl)azetidin-3-yl]-5-methylmorpholin-2-yl}imidazo[1,5-a]pyrazin-1-yl)-3-methoxy-N-[4-(trifluoromethyl)pyridin-2-yl]benzamide] are 7.61 nM and no less than 10000 nM.

(Values after patent US20170349593A1, “BTK INHIBITORS” (MERCK SHARP & DOHME CORP., priority 2014, published 2017).)
